Laboratory results as given in ChEMBL document CHEMBL3045562, “4-Pyridyl carbonyl compounds as thrips lures: effectiveness for Western flower thrips in y-tube bioassays” (2008).
Active and inactive are the calls of the source. The rule behind the calls is not given here.

Tests used:
Type in all cases: functional
[1] = tested on: Frankliniella occidentalis; assay: Thrips luring activity against female Frankliniella occidentalis (western flower thrips) assessed as induction of thrips to walk up odor-laden arm of Y-tube olfactometer by Y-tube olfactometer bioassay
[2] = tested on: Frankliniella occidentalis; assay: Thrips luring activity against female Frankliniella occidentalis (western flower thrips) assessed as induction of thrips to walk up odor-laden arm of Y-tube olfactometer at 5 x 10^-1 uL by Y-tube olfactometer bioassay
Thrips obscuratus = assay: Thrips luring activity against female New Zealand Thrips obscuratus (flower thrips) assessed as induction of thrips to walk up odor-laden arm of Y-tube olfactometer by Y-tube olfactometer bioassay
[3] = tested on: Frankliniella occidentalis; assay: Thrips luring activity against female Frankliniella occidentalis (western flower thrips) assessed as trapping of thrips using compound treated yellow sticky traps relative to untreated control under commercial greenhouse
[4] = tested on: Frankliniella occidentalis; assay: Thrips luring activity against female Frankliniella occidentalis (western flower thrips) assessed as induction of thrips to walk up odor-laden arm of Y-tube olfactometer at 1 uL by Y-tube olfactometer bioassay
[5] = tested on: Frankliniella occidentalis; assay: Thrips luring activity against female Frankliniella occidentalis (western flower thrips) assessed as induction of thrips to walk up odor-laden arm of Y-tube olfactometer at 1 x 10^-2 uL by Y-tube olfactometer bioassay
[6] = tested on: Frankliniella occidentalis; assay: Thrips luring activity against female Frankliniella occidentalis (western flower thrips) assessed as induction of thrips to walk up odor-laden arm of Y-tube olfactometer at 1 x 10^-5 uL by Y-tube olfactometer bioassay
[7] = tested on: Frankliniella occidentalis; assay: Thrips luring activity against female Frankliniella occidentalis (western flower thrips) assessed as induction of thrips to walk up odor-laden arm of Y-tube olfactometer at 1 x 10^-1 uL by Y-tube olfactometer bioassay
[8] = tested on: Frankliniella occidentalis; assay: Thrips luring activity against female Frankliniella occidentalis (western flower thrips) assessed as induction of thrips to walk up odor-laden arm of Y-tube olfactometer at 5 x 10^-4 uL by Y-tube olfactometer bioassay
[9] = tested on: Frankliniella occidentalis; assay: Thrips luring activity against female Frankliniella occidentalis (western flower thrips) assessed as induction of thrips to walk up odor-laden arm of Y-tube olfactometer at 5 x 10^-3 uL by Y-tube olfactometer bioassay
[10] = tested on: Frankliniella occidentalis; assay: Thrips luring activity against female Frankliniella occidentalis (western flower thrips) assessed as induction of thrips to walk up odor-laden arm of Y-tube olfactometer at 1 x 10^-3 uL by Y-tube olfactometer bioassay

CCOC(=O)c1ccnc(Cl)c1
Activity [1]: Active

CC(C)N(C(=O)c1ccncc1)C(C)C [DI-ISOPROPYL ISONICOTINAMIDE]
Activity [2]: 81%

CCOC(=O)c1cccnc1 [ETHYL NICOTINATE]
MAD (Thrips obscuratus): 1 ×10⁻⁶ microL

CC(=O)c1ccncc1 [METHYL 4-PYRIDYLKETONE]
fold change (FC) [3]: 4.5

N#Cc1ccncc1 [ISONICOTINONITRILE]
Activity [2]: 39%

CCCOC(=O)c1ccncc1 [N-PROPYL ISONICOTINATE]
MAD [1]: 1 ×10⁻³ microL

OCc1ccncc1 [PYRIDINE 4-METHANOL]
Activity [4]: 52%

CCOC(=O)C1CCNCC1 [ETHYL ISONIPECOTATE]
Activity [5]: 49% | Activity [4]: 63%

CCCCC(=O)OC1CC2CCC1(C)C2(C)C (centres undefined)
Activity [1]: Active

CCOC(=O)c1ccncc1 [ETHYL ISONICOTINATE]
fold change (FC) [3]: 14 | MAD (Thrips obscuratus): 1 ×10⁻³ microL | MAD [1]: 1 ×10⁻⁴ microL

COc1ccc(C=O)cc1 [ANISALDEHYDE]
Activity [6]: 52%

CCCC(O)c1ccncc1 (centres undefined) [1-(4-pyridyl)-1-butanol]
Activity [4]: 47%

CC(C)=CCOC(=O)c1ccncc1 [ISO-PENTENYL ISONICOTINATE]
Activity [4]: 49%

O=Cc1ccncc1 [4-FORMYLPYRIDINE]
Activity [5]: 15% | Activity [6]: Active

CCCC(=O)c1ccncc1 [PROPYL 4-PYRIDYL KETONE]
Activity [4]: 55% | Activity [7]: 47%

c1cc(C2OCCO2)ccn1 [PYRIDINE, 4-(1,3-DIOXALAN-2-YL)]
Activity [8]: 48% | Activity [2]: 61% | Activity [9]: 63%

COC(=O)c1ccncc1 [METHYL ISONICOTINATE]
fold change (FC) [3]: 14 | MAD [1]: 1 ×10⁻⁶ microL

OCCc1ccncc1 [4-(2-HYDROXYETHYL)PYRIDINE]
Activity [5]: 59% | Activity [4]: 79% | Activity [10]: 48%

CC(C)OC(=O)c1ccncc1 [ISOPROPYL ISONICOTINATE]
MAD [1]: 1 ×10⁻² microL
